Assay results reported in ChEMBL document CHEMBL1133376, “Recognition and inhibition of HIV integrase by a novel dinucleotide” (Bioorg Med Chem Lett, 2000).

How the values were obtained:
[1] = biological target: Human immunodeficiency virus type 1 integrase (Human immunodeficiency virus 1) (UniProt Q7ZJM1); test: Inhibition of strand transfer step useful in the integration of viral DNA into host cell DNA by inhibiting HIV integrase by compound
[2] = biological target: Human immunodeficiency virus type 1 integrase (Human immunodeficiency virus 1) (UniProt Q7ZJM1); test: Inhibition of 3' processing step useful in the integration of viral DNA into host cell DNA by inhibiting HIV integrase by compound

Sequence of Human immunodeficiency virus type 1 integrase (Human immunodeficiency virus 1) (Q7ZJM1 as listed by the source): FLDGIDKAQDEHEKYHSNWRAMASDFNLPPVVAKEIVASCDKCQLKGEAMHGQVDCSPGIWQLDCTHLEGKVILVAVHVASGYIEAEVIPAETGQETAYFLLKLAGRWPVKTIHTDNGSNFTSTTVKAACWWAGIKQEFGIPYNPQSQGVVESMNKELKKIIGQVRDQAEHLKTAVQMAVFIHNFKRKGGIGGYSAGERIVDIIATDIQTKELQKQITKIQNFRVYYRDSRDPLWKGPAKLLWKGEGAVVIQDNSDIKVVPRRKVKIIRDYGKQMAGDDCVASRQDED

SMILES	Inhibitory activity [1] [µM]	Inhibitory activity [2] [µM]
Nc1ccn([C@H]2C[C@H](O)[C@@H](COP(=O)(O)O[C@H]3[C@H](n4cnc5c(N)ncnc54)CO[C@@H]3CO)O2)c(=O)n1	200	200
Nc1ncnc2c1ncn2C1COC(COP(=O)(O)O)C1O (configuration not stated)	> 200	> 200
Cc1cn([C@H]2C[C@H](N=[N+]=[N-])[C@@H](COP(=O)(O)O)O2)c(=O)[nH]c1=O	140	> 110

Next, values leading:

Inhibitory activity [1] [µM]	Inhibitory activity [2] [µM]	SMILES
25	19	Nc1ccn([C@H]2C[C@H](O)[C@@H](COP(=O)(O)O[C@H]3[C@H](n4cnc5c(N)ncnc54)CO[C@@H]3COP(=O)(O)O)O2)c(=O)n1
45	50	Nc1ccn(C2CCC(COP(=O)(O)O)O2)c(=O)n1 (configuration not stated)
3	6	Nc1ccn([C@H]2C[C@H](O)[C@@H](COP(=O)(O)O[C@H]3C[C@H](n4cnc5c(N)ncnc54)O[C@@H]3COP(=O)(O)O)O2)c(=O)n1
